Several values for one entry are separate records, joined by “and”; a condition that tells them apart may be missing. Equal entries are not always repeated. Inconclusive results and toxic doses are left out. The calls were made as follows: active = survival T/C of 150% or more; inactive = T/C below 125% in these data. Square brackets hold non-standard residues; d marks the D form. Peptide text beside a SMILES is read from it. * marks the point of attachment. ξ: configuration not given here. Nphe = O=C(O)CNCc1ccccc1; ξL = CC(C)CC(N)C(=O)O; Ms = CS(=O)(=O)*
System: P388 leukemia ip, CD2F1 mice, survival T/C
Experiment: NCI In Vivo Anticancer Drug Screen. Data for tumor model P388 Leukemia (intraperitoneal) in CD2F1 (CDF1) mice
Settings: endpoint: median survival time, higher = longer survival
Summary of the method: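 Mice carrying the transplanted tumor received test compound or vehicle. Survival was recorded in each group, and the value is the treated-group measurement divided by that of the vehicle-treated control group.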

[1] = dose: 100.0 mg/kg/injection, schedule: Q01DX001 (ip), vehicle: saline with Tween-80
[2] = dose: 200.0 mg/kg/injection, schedule: Q01DX001 (ip), vehicle: saline with Tween-80
[3] = dose: 400.0 mg/kg/injection, schedule: Q01DX001 (ip), vehicle: saline with Tween-80
[4] = dose: 60.0 mg/kg/injection, schedule: Q01DX005 (ip), vehicle: saline with Tween-80
[5] = dose: 100.0 mg/kg/injection, schedule: Q04DX003 (ip), vehicle: saline with Tween-80
[6] = dose: 25.0 mg/kg/injection, schedule: Q01DX009 (ip), vehicle: Klucel (hydroxypropylcellulose) (HPC)
[7] = dose: 50.0 mg/kg/injection, schedule: Q01DX009 (ip), vehicle: Klucel (hydroxypropylcellulose) (HPC)
[8] = dose: 50.0 mg/kg/injection, schedule: Q01DX005 (ip), vehicle: saline with Tween-80
[9] = dose: 100.0 mg/kg/injection, schedule: Q01DX005 (ip), vehicle: saline with Tween-80
[10] = dose: 200.0 mg/kg/injection, schedule: Q01DX005 (ip), vehicle: saline with Tween-80
[11] = dose: 120.0 mg/kg/injection, schedule: Q01DX005 (ip), vehicle: saline with Tween-80
[12] = dose: 240.0 mg/kg/injection, schedule: Q01DX005 (ip), vehicle: saline with Tween-80
[13] = dose: 50.0 mg/kg/injection, schedule: Q01DX005 (ip), vehicle: Klucel (hydroxypropylcellulose) (HPC)
[14] = dose: 100.0 mg/kg/injection, schedule: Q01DX005 (ip), vehicle: Klucel (hydroxypropylcellulose) (HPC)
[15] = dose: 200.0 mg/kg/injection, schedule: Q01DX005 (ip), vehicle: Klucel (hydroxypropylcellulose) (HPC)

Measured: T/C

CC(C)CC(NC(=O)CN(Cc1ccccc1)S(C)(=O)=O)C(=O)O (stereo not drawn) (Ms-[Nphe]-[ξL]-OH)
inactive: dose: 12.5 mg/kg/injection, schedule: Q01DX009 (ip), vehicle: other 100 % of control | dose: 25.0 mg/kg/injection, schedule: Q01DX009 (ip), vehicle: other 104 % of control | dose: 50.0 mg/kg/injection, schedule: Q01DX009 (ip), vehicle: other 114 % of control | dose: 100.0 mg/kg/injection, schedule: Q01DX009 (ip), vehicle: other 104 % of control | dose: 200.0 mg/kg/injection, schedule: Q01DX009 (ip), vehicle: other 100 % of control

O=C1CN(/N=C/c2ccc(-c3cccc(C(F)(F)F)c3)o2)C(=O)N1
inactive: dose: 50.0 mg/kg/injection, schedule: Q04DX002 (ip), vehicle: saline with Tween-80 101 % of control | dose: 100.0 mg/kg/injection, schedule: Q04DX002 (ip), vehicle: saline with Tween-80 109 % of control

CC12OCCC1C(c1ccccc1[N+](=O)[O-])Nc1ccccc12 (stereo not drawn)
inactive: [1] 114 % of control | [2] 97 % of control | [3] 94 % of control

COc1ccc(OC)c(N=Cc2ccc(C=Nc3cc(OC)ccc3OC)cc2)c1
inactive: dose: 50.0 mg/kg/injection, schedule: Q01DX009 (ip), vehicle: saline 101 % of control | dose: 100.0 mg/kg/injection, schedule: Q01DX009 (ip), vehicle: saline 101 % of control

COC(=O)CC(N)C(=O)O (stereo not drawn)
inactive: dose: 12.5 mg/kg/injection, schedule: Q01DX005 (ip), vehicle: saline 97 % of control | dose: 25.0 mg/kg/injection, schedule: Q01DX005 (ip), vehicle: saline 89 % of control | dose: 50.0 mg/kg/injection, schedule: Q01DX005 (ip), vehicle: saline 99 % of control | dose: 100.0 mg/kg/injection, schedule: Q01DX005 (ip), vehicle: saline 97 % of control | dose: 200.0 mg/kg/injection, schedule: Q01DX005 (ip), vehicle: saline 94 % of control

CC1(C)CC(OC(=O)CCC(=O)OC2CC(C)(C)N(O)C(C)(C)C2)CC(C)(C)N1O
inactive: dose: 50.0 mg/kg/injection, schedule: Q01DX009 (ip), vehicle: suspension in saline 100 % of control | dose: 100.0 mg/kg/injection, schedule: Q01DX009 (ip), vehicle: suspension in saline 100 % of control | dose: 200.0 mg/kg/injection, schedule: Q01DX009 (ip), vehicle: suspension in saline 96 % of control

Cc1cc2[nH]c3c(C#N)c(OC(=O)N(C)C)c(C)c(=O)n3c2cc1C
inactive: dose: 15.0 mg/kg/injection, schedule: Q01DX005 (ip), vehicle: saline with Tween-80 100 % of control | dose: 30.0 mg/kg/injection, schedule: Q01DX005 (ip), vehicle: saline with Tween-80 108 % of control | [4] 100 % of control and 93 % of control

COc1c(Cl)cc2c(c1OC)N(C)C1N3C(=O)C4(C)SSC3(C(=O)N4C)C(O)C21O (stereo not drawn)
inactive: dose: 0.03 mg/kg/injection, schedule: Q01DX009 (ip), vehicle: Klucel (hydroxypropylcellulose) (HPC) 100 % of control and 118 % of control | dose: 0.06 mg/kg/injection, schedule: Q01DX009 (ip), vehicle: Klucel (hydroxypropylcellulose) (HPC) 89 % of control | dose: 0.13 mg/kg/injection, schedule: Q01DX009 (ip), vehicle: Klucel (hydroxypropylcellulose) (HPC) 96 % of control | dose: 0.5 mg/kg/injection, schedule: Q01DX009 (ip), vehicle: Klucel (hydroxypropylcellulose) (HPC) 94 % of control

COc1ccc(-c2cc3cc(CCCOC4OC(COC5OCC(O)C(O)C5O)C(O)C(O)C4O)cc(OC)c3o2)cc1OC (stereo not drawn)
inactive: dose: 18.75 mg/kg/injection, schedule: Q01DX005 (ip), vehicle: Klucel (hydroxypropylcellulose) (HPC) 96 % of control | dose: 37.5 mg/kg/injection, schedule: Q01DX005 (ip), vehicle: Klucel (hydroxypropylcellulose) (HPC) 88 % of control

O=c1c2ccccc2sc2cccc(Sc3ccccc3)c12
inactive: dose: 100.0 mg/kg/injection, schedule: Q01DX009 (ip), vehicle: saline with Tween-80 95 % of control | [5] 95 % of control | dose: 200.0 mg/kg/injection, schedule: Q04DX003 (ip), vehicle: saline with Tween-80 90 % of control | dose: 400.0 mg/kg/injection, schedule: Q04DX003 (ip), vehicle: saline with Tween-80 90 % of control

O=C1C(Sc2ccccc2)CCCC1Sc1ccccc1 (stereo not drawn)
inactive: [6] 109 % of control | [7] 100 % of control | dose: 100.0 mg/kg/injection, schedule: Q01DX009 (ip), vehicle: Klucel (hydroxypropylcellulose) (HPC) 98 % of control

Cc1cccc(NC(=O)CS)n1
inactive: [6] 98 % of control | [7] 95 % of control

CCN(CC)CCNc1cccc2oc3ccc(O)cc3c(=O)c12
inactive: [8] 108 % of control | [9] 105 % of control | [10] 108 % of control

N=c1ncn(C2OC(CO)C(O)C2O)c2nc[nH]c12 (stereo not drawn)
inactive: dose: 6.25 mg/kg/injection, schedule: Q01DX009 (ip), vehicle: Klucel (hydroxypropylcellulose) (HPC) 113 % of control | dose: 12.5 mg/kg/injection, schedule: Q01DX009 (ip), vehicle: Klucel (hydroxypropylcellulose) (HPC) 108 % of control

O=C(O)CCC(CCC(=O)O)(C(=O)O)C(=O)O
inactive: dose: 60.0 mg/kg/injection, schedule: Q01DX005 (ip), vehicle: saline 96 % of control | dose: 120.0 mg/kg/injection, schedule: Q01DX005 (ip), vehicle: saline 99 % of control

Cc1cc2[nH]c3c(C#N)c(OC(=O)N(C)C)c(-c4ccccc4)c(=O)n3c2cc1C
inactive: [4] 97 % of control | [11] 90 % of control | [12] 92 % of control

NCC1CC2(Cl)C(Cl)=C(Cl)C1(Cl)C2(Cl)Cl (stereo not drawn)
inactive: dose: 12.5 mg/kg/injection, schedule: Q01DX005 (ip), vehicle: saline with Tween-80 106 % of control | dose: 25.0 mg/kg/injection, schedule: Q01DX005 (ip), vehicle: saline with Tween-80 107 % of control | [8] 107 % of control and 111 % of control

COC(=O)c1ccccc1S(=O)(=O)NC(C)C
inactive: [13] 99 % of control | [14] 96 % of control | [15] 105 % of control

O=C1c2ccccc2C(=O)c2c(NCCSCCO)ccc(NCCSCCO)c21
inactive: dose: 16.0 mg/kg/injection, schedule: Q01DX009 (ip), vehicle: Klucel (hydroxypropylcellulose) (HPC) 92 % of control | dose: 32.0 mg/kg/injection, schedule: Q01DX009 (ip), vehicle: Klucel (hydroxypropylcellulose) (HPC) 96 % of control | dose: 64.0 mg/kg/injection, schedule: Q01DX009 (ip), vehicle: Klucel (hydroxypropylcellulose) (HPC) 89 % of control | dose: 128.0 mg/kg/injection, schedule: Q01DX009 (ip), vehicle: Klucel (hydroxypropylcellulose) (HPC) 86 % of control

O=S1(=O)C2CCCCC2C2CCCCC21 (stereo not drawn)
inactive: [1] 108 % of control | [2] 106 % of control | [3] 113 % of control

Nc1nc2c(nc(OCc3ccccc3)n2C2OC(CO)C(O)C2O)c(=O)n1N (stereo not drawn)
inactive: [4] 104 % of control | [11] 96 % of control | [12] 100 % of control

CC(C)(OC(=O)NC(CC(N)=O)C(=O)O)c1ccc(-c2ccccc2)cc1 (stereo not drawn)
inactive: [13] 98 % of control | [14] 104 % of control | [15] 90 % of control

Cc1cccc(=O)[n-]1.Cc1cccc(=O)[n-]1.Cc1cccc(=O)[n-]1.Cc1cccc(=O)[n-]1.Cc1cccc(=O)[n-]1.Cc1cccc(=O)[n-]1.Cc1cccc(=[OH+])[n-]1.Cc1cccc(=[OH+])[n-]1.[Rh+2].[Rh+2].[Rh+2].[Rh+2]
inactive: dose: 100.0 mg/kg/injection, schedule: Q04DX002 (ip), vehicle: Klucel (hydroxypropylcellulose) (HPC) 104 % of control | dose: 200.0 mg/kg/injection, schedule: Q04DX002 (ip), vehicle: Klucel (hydroxypropylcellulose) (HPC) 113 % of control

O=C1c2ccccc2C(=O)c2cc3c(cc21)C1OC3C2=C1CC1C(=O)OC(=O)C1C2 (stereo not drawn)
inactive: [8] 111 % of control | [9] 93 % of control | [10] 94 % of control

CNC(=O)Oc1cccc(NC(=S)SC)c1
inactive: dose: 12.5 mg/kg/injection, schedule: Q04DX003 (ip), vehicle: saline with Tween-80 106 % of control | dose: 25.0 mg/kg/injection, schedule: Q04DX003 (ip), vehicle: saline with Tween-80 104 % of control | dose: 50.0 mg/kg/injection, schedule: Q04DX003 (ip), vehicle: saline with Tween-80 100 % of control | [5] 104 % of control

OC1(c2ccc(F)cc2)CCNCC1
inactive: dose: 60.0 mg/kg/injection, schedule: Q01DX005 (ip), vehicle: Klucel (hydroxypropylcellulose) (HPC) 104 % of control | dose: 120.0 mg/kg/injection, schedule: Q01DX005 (ip), vehicle: Klucel (hydroxypropylcellulose) (HPC) 92 % of control
